Measurements reported in US12690589B2, “Herbicidal compositions comprising pyroxasulfone” (BASF SE, priority 2024, dated 2026).

Tests used:
[1] = system: Digitaria sanguinalis (DIGSA); assay: Post-emergence application in field trials, herbicidal activity (damage scale 0 to 100%); format: in vivo
Experimental: (§1) In the examples below, using the method of S. R. Colby (1967) “Calculating synergistic and antagonistic responses of herbicide combinations”, Weeds 15, p. 22ff., the value E, which is expected if the activity of the individual active compounds is only additive, was calculated:
(§2) [formula] • wherein • X=percent activity using active herbicide A at an application rate a; • Y=percent activity using active herbicide B (e.g. pyroxasulfone) at an application rate b; • E=expected activity (in %) by A+B at application rates a+b.
(§3) For 3-component mixtures the synergistic response was calculated as described in: Ferry, Nancy; Stanley, Bruce H.; and Armel, Gregory (2005). “DESIGN AND ANALYSIS OF BIOLOGICAL ASSAYS OF MIXTURES,” Conference on Applied Statistics in Agriculture. https://doi.org/10.4148/2475-7772.1133. According to this publication, the Colby calculation can be generalized to a third mixing partner, Z, employing the following formula: […]
(§4) If the value found experimentally is higher than the value E calculated according to Colby, a synergistic effect is present.
(§5) On field test sites, natural weed infestation or seeded weeds were treated post-emergence of the weeds.
(§6) In the field trials, the weeds were treated as indicated below.
(§7) In the following experiments, the herbicidal activity for the individual herbicidal compositions (solo and mixture applications) was assessed at the indicated days after treatment (DAT). The assessments for the damage on undesired weeds caused by the composition was carried out using a scale from 0 to 100%, compared to the untreated control plants. Here, 0 means no damage and 100 means complete destruction of the plants.
(§8) Herbicide A-1 (342 g/l) and pyroxasulfone (500 g/l) were, together with addition of 0.25 v/v % MSO (methylated seed oil) as adjuvant, formulated in 200 l/ha water as distribution medium and sprayed with commercial flat fan nozzles.
(§9) Herbicide A-1 (342 g/l), pyroxasulfone (500 g/l) and trifludimoxazin (500 g/l) were, together with addition of 0.25 v/v % MSO (methylated seed oil) as adjuvant, formulated in 200 l/ha water as distribution medium and sprayed with commercial flat fan nozzles.
(§10) Herbicide A-1 (342 g/I), pyroxasulfone (500 g/l) and glyphosate-isopropylammonium (356 g/l) were, together with addition of 0.25 v/v % MSO (methylated seed oil) as adjuvant, formulated in 200 l/ha water as distribution medium and sprayed with commercial flat fan nozzles.
(§11) Herbicide A-1 (342 g/l), pyroxasulfone (500 g/l) and glufosinate-P-ammonium (211 g/l) were, together with addition of 0.25 v/v % MSO (methylated seed oil) as adjuvant, formulated in 200 l/ha water as distribution medium and sprayed with commercial flat fan nozzles.
(§12) Herbicide A-1 (342 g/l), pyroxasulfone (500 g/l) and 2,4-D-choline (456 g/l) were, together with addition of 0.25 v/v % MSO (methylated seed oil) as adjuvant, formulated in 200 l/ha water as distribution medium and sprayed with commercial flat fan nozzles.

Hordeum vulgare (HORVW) = assay: as above; format: in vivo
Experimental: as §1, §2, §3, §4, §5, §6, §7, §8, §9, §10, §11, §12

Measured: % Herbicidal activity

Cn1nc(C(F)(F)F)c(CS(=O)(=O)C2=NOC(C)(C)C2)c1OC(F)F [B, pyroxasulfone]
0%: [1]; 7 DAT, stage 22, height 10-15 cm, g ai/ha A-1 12.5, B 70, C-4 12.5 | [1]; 7 DAT, stage 22, height 10-15 cm, g ai/ha A-1 18, B 70, C-4 12.5 | [1]; 7 DAT, stage 22, height 10-15 cm, g ai/ha A-1 18, B 70, C-8 840 | [1]; 7 DAT, stage 22, height 10-15 cm, g ai/ha A-1 18, B 70, C-12 252 | [1]; 7 DAT, stage 22, height 10-15 cm, g ai/ha A-1 18, B 90, C-4 12.5 | [1]; 7 DAT, stage 22, height 10-15 cm, g ai/ha A-1 18, B 90, C-8 840 | [1]; 7 DAT, stage 22, height 10-15 cm, g ai/ha A-1 18, B 90, C-12 252 | [1]; 21 DAT, stage 22, height 10-15 cm, g ai/ha A-1 12.5, B 70, C-4 12.5 | [1]; 21 DAT, stage 22, height 10-15 cm, g ai/ha A-1 18, B 70, C-4 12.5 | [1]; 21 DAT, stage 22, height 10-15 cm, g ai/ha A-1 18, B 70, C-12 252 | [1]; 21 DAT, stage 22, height 10-15 cm, g ai/ha A-1 18, B 90, C-4 12.5 | [1]; 21 DAT, stage 22, height 10-15 cm, g ai/ha A-1 18, B 90, C-12 252 | [1]; 42 DAT, stage 22, height 10-15 cm, g ai/ha A-1 12.5, B 70 | [1]; 42 DAT, stage 22, height 10-15 cm, g ai/ha A-1 12.5, B 70, C-4 12.5 | [1]; 42 DAT, stage 22, height 10-15 cm, g ai/ha A-1 18, B 70 | [1]; 42 DAT, stage 22, height 10-15 cm, g ai/ha A-1 18, B 70, C-4 12.5 | [1]; 42 DAT, stage 22, height 10-15 cm, g ai/ha A-1 18, B 70, C-12 252 | [1]; 42 DAT, stage 22, height 10-15 cm, g ai/ha A-1 18, B 90 | [1]; 42 DAT, stage 22, height 10-15 cm, g ai/ha A-1 18, B 90, C-4 12.5 | [1]; 42 DAT, stage 22, height 10-15 cm, g ai/ha A-1 18, B 90, C-12 252 | [1]; DIGSA, growth stage 22, height 10-15 cm, B 70 g ai/ha, 7 DAT, Table 4.1 | [1]; DIGSA, growth stage 22, height 10-15 cm, B 70 g ai/ha, 21 DAT, Table 4.3 | [1]; DIGSA, growth stage 22, height 10-15 cm, B 90 g ai/ha, 7 DAT, Table 4.1 | [1]; DIGSA, growth stage 22, height 10-15 cm, B 90 g ai/ha, 21 DAT, Table 4.3 | [1]; Table 8.1, 7 DAT, stage 22, height 10-15 cm, g ai/ha A-1 18, B 70, C-12 1066 | [1]; Table 8.2, 21 DAT, stage 22, height 10-15 cm, g ai/ha A-1 18, B 70, C-12 1066 | [1]; Table 8.4, 42 DAT, stage 22, height 10-15 cm, g ai/ha A-1 18, B 70, C-12 1066 | Hordeum vulgare (HORVW); 7 DAT, stage 23-29, height 20-25 cm, g ai/ha A-1 12.5, B 70, C-12 252 | Hordeum vulgare (HORVW); 7 DAT, stage 23-29, height 20-25 cm, g ai/ha A-1 18, B 70, C-12 252 | Hordeum vulgare (HORVW); 7 DAT, stage 23-29, height 20-25 cm, g ai/ha A-1 18, B 90, C-12 252 | Hordeum vulgare (HORVW); 21 DAT, stage 23-29, height 20-25 cm, g ai/ha A-1 12.5, B 70, C-12 252 | Hordeum vulgare (HORVW); 21 DAT, stage 23-29, height 20-25 cm, g ai/ha A-1 18, B 70, C-12 252 | Hordeum vulgare (HORVW); 21 DAT, stage 23-29, height 20-25 cm, g ai/ha A-1 18, B 90, C-12 252 | Hordeum vulgare (HORVW); 28 DAT, stage 23-29, height 20-25 cm, g ai/ha A-1 12.5, B 70, C-12 252 | Hordeum vulgare (HORVW); 28 DAT, stage 23-29, height 20-25 cm, g ai/ha A-1 18, B 70, C-12 252 | Hordeum vulgare (HORVW); 28 DAT, stage 23-29, height 20-25 cm, g ai/ha A-1 18, B 90, C-12 252 | Hordeum vulgare (HORVW); HORVW, growth stage 23-29, height 20-25 cm, B 70 g ai/ha, 7 DAT, Table 4.2 | Hordeum vulgare (HORVW); HORVW, growth stage 23-29, height 20-25 cm, B 70 g ai/ha, 21 DAT, Table 4.4 | Hordeum vulgare (HORVW); HORVW, growth stage 23-29, height 20-25 cm, B 70 g ai/ha, 28 DAT, Table 4.5 | Hordeum vulgare (HORVW); HORVW, growth stage 23-29, height 20-25 cm, B 90 g ai/ha, 7 DAT, Table 4.2 | Hordeum vulgare (HORVW); HORVW, growth stage 23-29, height 20-25 cm, B 90 g ai/ha, 21 DAT, Table 4.4
